Measurements from patent US9522121B2, “Aqueous-core lipid nanocapsules for encapsulating hydrophilic and/or lipophilic molecules” (UNIVERSITE D'ANGERS, priority 2007, dated 2016).

Key:
NIH/3T3 cells = test: Cytotoxicity of particles (P) without active ingredient, cell survival by MTT test; assay type: cell-based, Mus musculus; parameters: unit: % of control; conditions: DMSO, control = 100.00
Method: The cytotoxicity of particles (P) prepared according to 1.2 hereabove—without any active ingredient encapsulated (hereafter called NCB)—was assessed on NIH/3T3 cells (fibroblasts of mice Mus musculus). The […] were exposed to various particle concentrations, during 4, 24, 48 or 72 hours. The cell survival was determined by the MTT test.

[1] = Encapsulation yield, indirect quantification in external water after centrifugation; assay type: physicochemical; conditions: for encapsulation yield (plateau): hydrophilic molecule in aqueous core, tp = 2 h, highest monomer (TDI) contents
Excerpt: (i) Hydrophilic materials, eventually, have to be shared out into the w/o nanoemulsions water droplets, and it may be done right from the start included in the water phase of the macro-emulsions preparations. Another higher effective manner consists in injecting a very small volume (no more than 2% (v./v.)) of very concentrated aqueous solution, in the microemulsion maintained at the PIT, after the temperature cycling, and before the isopentane dilution. The droplet injected in the (still) stirred microemulsion, very rapidly integrates the aqueous part of the bicontinuous network. As a result of the oil dilution, the nanoemulsion immediately forms, allowing a very homogeneous dispersion in oil of the injected hydrophilic molecule. Incorporating the hydrophilic species through this original manner, eventually prevents the molecules degradation during processing potentially due to the temperature cycling treatment. The hydrophilic model molecules were chosen with very different molecular weight: The first one is a labile dye, methylene blue (MB), the second is a protein, the bovin serum albumin fluorecein isothiocyanate labeled (BSA-FITC) and the last one is a fluorescent compound, Doxorubicin Chlorhydrate (DOX), which is an anti-cancer drug.
(ii) On the other hand, the lipophilic species were introduced in the oil phase of the nanoemulsion, after the chosen time of polymerization (to maximally prevent the potential interactions with the monomer), and before the stage of isopentane evaporation. Thereby, after the complete isopentane evaporation, the lipophilic added materials will be equally shared onto the droplets enclosed in the residual mineral oil, that is, trapped in the amorphous oil/non-ionic surfactant matrix. It finally appears as a marker of the residual mineral oil location, and determining a significant encapsulation yield should support the proposed multi-functional water/oil structure. […] It is important to note here, that these processes of nanocapsule formulation containing hydrophilic and lipophilic agents can be still considered as only involving a low quantity of energy (often called ‘low-energy’ methods). […]
All the quantifications were performed following an indirect method, after separating the external water to the nanocapsules by centrifugation (30 min, 14500 rpm), it was freeze-dried (RP2V, SGD, Le Coudray Saint-Germer, France) to ensure the destruction of the potentially remaining nanocapsules (and also to prevent their additional light adsorption in the quantification process). Next, the freeze-dried samples are solubilized in dichloromethane (DCM), and the different incorporated molecules except DOX which are present in the external water are simply quantified using a Spectrophotometer UV-visible Uvikon 922 Spectrophotometer (Bio-Tek Koutron instruments, Saint-Quentin-en-Yvelines, France). DOX was quantified using a spectrofluorimeter (Fluoroskan Ascent FL, type 374, Thermo Electron Corporation, Finland). […]
Owing to the real challenge that constitutes the encapsulation of hydrophilic agent into nanocapsules themselves dispersed in aqueous continuous phase, the first result will concern the extent in which the selected hydrophilic species, methylene blue and BSA-FITC, can be encapsulated into such colloids. The molecules incorporation during the nanoemulsion generation step as well as the molecule quantification for determining the encapsulation yield, follow the above-described procedures. […]

[2] = Doxorubicin release kinetics from particles (P), dialysis against PBS; assay type: physicochemical; conditions: DOX-loaded particles (P), dialysis 15 kDa membrane, PBS pH 7.4, 37° C.
Method: To establish the drug release kinetics (see FIG. 8), 2 mL of freshly prepared suspension containing DOX-loaded particle (P), enclosed into a dialysis 15 kDa membrane (Spectra/Por® Membranes, Fisher Bioblock Scientific, Illkirch, France), were added to 40 mL of phosphate buffered saline (PBS, pH 7.4) from Sigma. The flack was weakly mechanically stirred (125 rpm) in darkness, at 37° C. (in a boiler, Julabo SW22, JULABO Labortechnik GmbH, Seelbach, Germany). Next, 500 μL of release medium were collected at specified time points and the DOX concentrations were determined by spectrofluorimetry, as previously described. This collected volume was systematically replaced by the same volume of fresh PBS for insuring the “sink” experimental conditions.

C[S+](C)[O-] [DMSO]
cell survival (MTT test), mean (NIH/3T3 cells; 4 H exposure): 46.75 | cell survival (MTT test), mean (NIH/3T3 cells; 24 H exposure): 10.22 | cell survival (MTT test), mean (NIH/3T3 cells; 48 H exposure): 4.79 | cell survival (MTT test), mean (NIH/3T3 cells; 72 H exposure): 5.00

COc1cccc2c1C(=O)c1c(O)c3c(c(O)c1C2=O)C[C@@](O)(C(=O)CO)C[C@@H]3O[C@H]1C[C@H](N)[C@H](O)[C@H](C)O1 [DOX, Doxorubicin Chlorhydrate]
yield of encapsulated doxorubicin ([1]; in aqueous droplets (no monomer)): 30% | yield of encapsulated doxorubicin ([1]; in polymeric nanocapsules (interfacial polymerization with tolylene 2,4-diisocyanate)): 70% | release with time (maximum given by the curve fit) [2]: ~100%

CN(C)c1ccc2nc3ccc(=[N+](C)C)cc-3sc2c1 [MB, Methylene Blue]
encapsulation yield (plateau) [1]: about 0.9

Oc1ccc2ccccc2c1N=Nc1ccc(N=Nc2ccccc2)cc1 [RS, red Soudan III]
encapsulation yield ([1]; lipophilic molecule in oil shell, simultaneously encapsulated with MB, tp 2 hours, no influence of monomer amount): around 0.92

Bovine Serum Albumin-Fluorescein Isothiocyanate labeled [BSA-FITC]
encapsulation yield (plateau) [1]: about 0.9
